Activity calls are given as the source filed them. Cut-off read from the data, not from the text of the source, for most assays here: actives have a measured Kd and inactives only a lower limit.
Key:
[1] = molecular target: T1, Beta-adrenergic receptor kinase 1 (Homo sapiens, UniProt P25098)
T1 sequence (P25098 whole entry): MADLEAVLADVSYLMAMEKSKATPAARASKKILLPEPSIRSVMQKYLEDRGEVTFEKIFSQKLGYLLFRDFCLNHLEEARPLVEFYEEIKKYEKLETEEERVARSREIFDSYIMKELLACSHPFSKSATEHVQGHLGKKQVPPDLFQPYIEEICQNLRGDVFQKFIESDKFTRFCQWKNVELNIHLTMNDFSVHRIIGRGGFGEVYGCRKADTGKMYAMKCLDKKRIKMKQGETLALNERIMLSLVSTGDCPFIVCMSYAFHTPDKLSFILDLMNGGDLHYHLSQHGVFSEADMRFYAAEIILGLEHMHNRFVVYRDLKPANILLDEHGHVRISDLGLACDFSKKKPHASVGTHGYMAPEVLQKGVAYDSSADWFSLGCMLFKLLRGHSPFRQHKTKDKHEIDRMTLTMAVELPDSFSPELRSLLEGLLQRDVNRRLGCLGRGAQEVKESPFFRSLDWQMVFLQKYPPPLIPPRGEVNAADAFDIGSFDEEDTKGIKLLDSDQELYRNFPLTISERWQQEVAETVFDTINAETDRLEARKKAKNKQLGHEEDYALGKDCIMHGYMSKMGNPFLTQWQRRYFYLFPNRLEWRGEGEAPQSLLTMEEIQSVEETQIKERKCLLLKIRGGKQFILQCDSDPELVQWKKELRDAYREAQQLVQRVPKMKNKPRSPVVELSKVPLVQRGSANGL

[2] = molecular target: Protein kinase C delta type (Homo sapiens, UniProt Q05655)
[3] = molecular target: Serine/threonine-protein kinase 26 (Homo sapiens, UniProt Q9P289)
[4] = molecular target: Ribosomal protein S6 kinase alpha-3 (Homo sapiens, UniProt P51812)
[5] = molecular target: T2, Non-receptor tyrosine-protein kinase TNK1 (Homo sapiens, UniProt Q13470)
T2 sequence (Q13470 whole entry): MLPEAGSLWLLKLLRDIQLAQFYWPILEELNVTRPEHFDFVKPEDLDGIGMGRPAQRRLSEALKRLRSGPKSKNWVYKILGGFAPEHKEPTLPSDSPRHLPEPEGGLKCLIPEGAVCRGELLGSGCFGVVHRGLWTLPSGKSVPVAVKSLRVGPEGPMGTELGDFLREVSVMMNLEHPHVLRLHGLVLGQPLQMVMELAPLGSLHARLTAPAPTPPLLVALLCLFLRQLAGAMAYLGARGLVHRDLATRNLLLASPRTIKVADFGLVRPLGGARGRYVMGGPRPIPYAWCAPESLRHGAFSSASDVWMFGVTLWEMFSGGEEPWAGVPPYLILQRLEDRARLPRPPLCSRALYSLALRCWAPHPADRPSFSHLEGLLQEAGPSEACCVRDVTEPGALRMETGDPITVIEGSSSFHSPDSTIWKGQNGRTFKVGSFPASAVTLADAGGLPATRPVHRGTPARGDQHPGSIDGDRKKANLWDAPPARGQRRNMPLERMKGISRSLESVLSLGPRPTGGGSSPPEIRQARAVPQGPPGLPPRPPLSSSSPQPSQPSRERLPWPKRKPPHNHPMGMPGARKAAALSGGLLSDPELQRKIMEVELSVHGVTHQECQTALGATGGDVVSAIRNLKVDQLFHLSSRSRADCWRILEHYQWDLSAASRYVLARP

[6] = molecular target: T3, Calcium/calmodulin-dependent protein kinase type IV (Homo sapiens, UniProt Q16566)
T3 sequence (Q16566 whole entry): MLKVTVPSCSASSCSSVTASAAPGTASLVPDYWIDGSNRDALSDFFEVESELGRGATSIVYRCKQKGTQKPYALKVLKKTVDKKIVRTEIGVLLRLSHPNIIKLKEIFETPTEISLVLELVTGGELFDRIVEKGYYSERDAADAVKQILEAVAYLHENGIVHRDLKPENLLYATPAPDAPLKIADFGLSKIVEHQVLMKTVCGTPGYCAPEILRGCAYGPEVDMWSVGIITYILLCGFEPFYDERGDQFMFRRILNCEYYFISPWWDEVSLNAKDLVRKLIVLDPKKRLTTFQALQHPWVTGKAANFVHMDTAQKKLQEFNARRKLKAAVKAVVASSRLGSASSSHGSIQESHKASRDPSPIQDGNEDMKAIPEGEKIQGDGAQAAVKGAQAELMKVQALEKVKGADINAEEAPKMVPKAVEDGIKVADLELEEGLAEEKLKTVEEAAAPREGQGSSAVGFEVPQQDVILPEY

[7] = molecular target: T4, Membrane-associated tyrosine- and threonine-specific cdc2-inhibitory kinase (Homo sapiens, UniProt Q99640)
T4 sequence (Q99640 whole entry): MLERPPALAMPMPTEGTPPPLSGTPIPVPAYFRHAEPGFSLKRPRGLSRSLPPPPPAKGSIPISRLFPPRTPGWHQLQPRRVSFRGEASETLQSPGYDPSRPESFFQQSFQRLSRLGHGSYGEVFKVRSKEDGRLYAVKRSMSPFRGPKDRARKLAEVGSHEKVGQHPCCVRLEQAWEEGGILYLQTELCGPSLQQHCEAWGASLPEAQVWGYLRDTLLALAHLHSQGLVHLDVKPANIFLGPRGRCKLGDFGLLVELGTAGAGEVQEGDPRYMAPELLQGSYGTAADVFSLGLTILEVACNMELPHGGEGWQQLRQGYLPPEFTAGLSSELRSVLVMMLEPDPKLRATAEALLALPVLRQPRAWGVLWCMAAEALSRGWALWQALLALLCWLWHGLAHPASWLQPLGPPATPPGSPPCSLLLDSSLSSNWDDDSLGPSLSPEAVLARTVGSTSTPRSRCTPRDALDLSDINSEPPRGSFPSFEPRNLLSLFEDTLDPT
Note: in the data inactive means no Kd found up to 30 µM.

Protein kinase C delta type, sequence (Q05655 whole entry): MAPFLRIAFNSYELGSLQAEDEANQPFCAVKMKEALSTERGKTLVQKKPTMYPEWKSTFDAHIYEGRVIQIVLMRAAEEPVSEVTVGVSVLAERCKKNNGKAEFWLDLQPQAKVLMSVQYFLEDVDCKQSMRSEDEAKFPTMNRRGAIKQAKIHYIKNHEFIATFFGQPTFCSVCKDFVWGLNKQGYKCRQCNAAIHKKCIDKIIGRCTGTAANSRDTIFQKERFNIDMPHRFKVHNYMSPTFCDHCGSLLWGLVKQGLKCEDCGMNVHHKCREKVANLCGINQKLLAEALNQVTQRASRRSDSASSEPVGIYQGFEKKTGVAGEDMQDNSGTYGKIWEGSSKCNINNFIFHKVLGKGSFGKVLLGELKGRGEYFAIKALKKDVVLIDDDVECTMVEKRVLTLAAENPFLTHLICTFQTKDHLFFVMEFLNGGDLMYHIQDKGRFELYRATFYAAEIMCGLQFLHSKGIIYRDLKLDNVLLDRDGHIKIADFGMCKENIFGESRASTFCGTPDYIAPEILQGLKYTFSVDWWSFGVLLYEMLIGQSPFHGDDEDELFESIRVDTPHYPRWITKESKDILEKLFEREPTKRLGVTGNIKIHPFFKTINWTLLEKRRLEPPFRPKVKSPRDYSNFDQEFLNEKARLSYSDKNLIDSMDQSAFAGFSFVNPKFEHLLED
Serine/threonine-protein kinase 26, sequence (Q9P289 whole entry): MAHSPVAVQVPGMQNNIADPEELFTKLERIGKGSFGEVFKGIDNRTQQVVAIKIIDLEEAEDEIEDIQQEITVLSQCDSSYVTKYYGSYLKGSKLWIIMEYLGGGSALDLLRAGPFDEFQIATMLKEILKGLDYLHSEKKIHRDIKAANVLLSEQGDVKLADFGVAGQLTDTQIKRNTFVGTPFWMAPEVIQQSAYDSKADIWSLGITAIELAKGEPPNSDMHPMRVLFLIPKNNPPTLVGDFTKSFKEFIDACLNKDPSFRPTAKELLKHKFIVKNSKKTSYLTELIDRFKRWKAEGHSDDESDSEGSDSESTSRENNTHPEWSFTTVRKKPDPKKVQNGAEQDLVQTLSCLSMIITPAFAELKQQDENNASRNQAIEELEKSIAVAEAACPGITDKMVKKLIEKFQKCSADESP
Ribosomal protein S6 kinase alpha-3, sequence (P51812 whole entry): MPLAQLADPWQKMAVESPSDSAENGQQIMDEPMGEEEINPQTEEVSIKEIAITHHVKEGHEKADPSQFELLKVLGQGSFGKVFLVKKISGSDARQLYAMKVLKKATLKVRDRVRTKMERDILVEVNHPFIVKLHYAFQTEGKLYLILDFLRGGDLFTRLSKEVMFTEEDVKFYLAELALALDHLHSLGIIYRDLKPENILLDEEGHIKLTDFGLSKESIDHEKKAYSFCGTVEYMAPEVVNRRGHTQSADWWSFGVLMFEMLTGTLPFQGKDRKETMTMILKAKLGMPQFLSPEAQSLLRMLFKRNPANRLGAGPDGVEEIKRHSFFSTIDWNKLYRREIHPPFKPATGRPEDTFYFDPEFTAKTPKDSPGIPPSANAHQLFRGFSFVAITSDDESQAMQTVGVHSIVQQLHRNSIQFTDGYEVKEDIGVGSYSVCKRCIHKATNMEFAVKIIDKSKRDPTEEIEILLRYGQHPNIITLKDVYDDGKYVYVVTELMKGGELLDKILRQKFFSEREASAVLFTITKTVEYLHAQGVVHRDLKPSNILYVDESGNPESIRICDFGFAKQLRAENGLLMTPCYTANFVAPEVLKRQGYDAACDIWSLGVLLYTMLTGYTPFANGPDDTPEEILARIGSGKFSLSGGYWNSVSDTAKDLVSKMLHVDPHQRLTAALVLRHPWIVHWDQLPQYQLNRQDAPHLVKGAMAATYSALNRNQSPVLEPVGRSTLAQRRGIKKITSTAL

| Kd [1] | Kd [2] | Kd [3] | Kd [4] | Kd [5] | Kd [6] | Kd [7] | SMILES |
| --- | --- | --- | --- | --- | --- | --- | --- |
| > 30 µM (inactive) | > 30 µM (inactive) | > 30 µM (inactive) | > 30 µM (inactive) | > 30 µM (inactive) | > 30 µM (inactive) | > 30 µM (inactive) | Cc1cccc(-c2nn3c(c2-c2ccnc4ccc(C(N)=O)cc24)CCC3)n1 [GALUNISERTIB] |
| > 30 µM (inactive) | > 30 µM (inactive) | > 30 µM (inactive) | > 30 µM (inactive) | > 30 µM (inactive) | > 30 µM (inactive) | > 30 µM (inactive) | COc1ccc(S(=O)(=O)N(C(C)=O)c2ccccc2/C=C/c2cc[n+]([O-])cc2)cc1 [HMN-214] |
| > 30 µM (inactive) | > 30 µM (inactive) | > 30 µM (inactive) | > 30 µM (inactive) | > 30 µM (inactive) | > 30 µM (inactive) | > 30 µM (inactive) | CNC(=O)c1cccc2cc(Oc3ccnc4cc(OCC5(N)CC5)c(OC)cc34)ccc12 [LUCITANIB] |
| > 30 µM (inactive) | > 30 µM (inactive) | > 30 µM (inactive) | > 30 µM (inactive) | 5.68 µM (active) | > 30 µM (inactive) | > 30 µM (inactive) | CNC(=O)c1nn(C)c2c1C(C)(C)Cc1cnc(Nc3ccc(N4CCN(C)CC4)cc3)nc1-2 [MILCICLIB] |
| > 30 µM (inactive) | > 30 µM (inactive) | > 30 µM (inactive) | > 30 µM (inactive) | > 30 µM (inactive) | > 30 µM (inactive) | > 30 µM (inactive) | NC1(c2ccc(-c3nc4ccn5c(=O)[nH]nc5c4cc3-c3ccccc3)cc2)CCC1 [MK-2206] |
| > 30 µM (inactive) | > 30 µM (inactive) | > 30 µM (inactive) | > 30 µM (inactive) | > 30 µM (inactive) | > 30 µM (inactive) | > 30 µM (inactive) | CN(C[C@@H]1COCCO1)S(=O)(=O)Nc1ccc2ccc3ncc(-c4cnn(C)c4)cc3c(=O)c2c1 [MK-2461] |
| > 30 µM (inactive) | > 30 µM (inactive) | > 30 µM (inactive) | > 30 µM (inactive) | > 30 µM (inactive) | > 30 µM (inactive) | > 30 µM (inactive) | Cn1cc(-c2cnc3ccc4ccc(CS(=O)(=O)NCc5ccccn5)cc4c(=O)c3c2)cn1 [MK-8033] |
| > 30 µM (inactive) | > 30 µM (inactive) | > 30 µM (inactive) | > 30 µM (inactive) | > 30 µM (inactive) | > 30 µM (inactive) | > 30 µM (inactive) | FC(F)(F)c1ccc(/C=C/c2nc(COc3ccc(CCCCn4ccnn4)cc3)co2)cc1 [MUBRITINIB] |
| > 30 µM (inactive) | > 30 µM (inactive) | > 30 µM (inactive) | > 30 µM (inactive) | > 30 µM (inactive) | > 30 µM (inactive) | > 30 µM (inactive) | COc1ncc(-c2ccc3nccc(-c4ccnnc4)c3c2)cc1NS(=O)(=O)c1ccc(F)cc1F [OMIPALISIB] |
| 22.5 µM (active) | 0.974 µM (active) | 0.017 µM | 0.1 µM (active) | > 30 µM (inactive) | 0.408 µM (active) | > 30 µM (inactive) | Cc1nc(Nc2n[nH]c3c2CN(C(=O)N[C@H](CN(C)C)c2ccccc2)C3(C)C)c2sccc2n1 [PF-03758309] |
| > 30 µM (inactive) | > 30 µM (inactive) | > 30 µM (inactive) | > 30 µM (inactive) | > 30 µM (inactive) | > 30 µM (inactive) | > 30 µM (inactive) | Cc1cnc(NC(=O)Nc2cc(Br)c(C)cc2OC[C@@H]2CNCCO2)cn1 [RABUSERTIB] |
| > 30 µM (inactive) | > 30 µM (inactive) | > 30 µM (inactive) | > 30 µM (inactive) | > 30 µM (inactive) | > 30 µM (inactive) | > 30 µM (inactive) | CO[C@H]1C[C@@H]2CC[C@@H](C)[C@@](O)(O2)C(=O)C(=O)N2CCCC[C@H]2C(=O)O[C@H]([C@H](C)C[C@@H]2CC[C@@H](OP(C)(C)=O)[C@H](OC)C2)CC(=O)[C@H](C)/C=C(\C)[C@@H](O)[C@@H](OC)C(=O)[C@H](C)C[C@H](C)/C=C/C=C/C=C/1C [RIDAFOROLIMUS] |
| > 30 µM (inactive) | > 30 µM (inactive) | > 30 µM (inactive) | > 30 µM (inactive) | > 30 µM (inactive) | > 30 µM (inactive) | > 30 µM (inactive) | N#CC1(c2ccc(NC(=O)c3cccnc3NCc3ccncc3)cc2)CCCC1 [RIVOCERANIB] |
| > 30 µM (inactive) | 0.021 µM (active) | > 30 µM (inactive) | > 30 µM (inactive) | > 30 µM (inactive) | > 30 µM (inactive) | > 30 µM (inactive) | O=c1[nH]ccc2cc(OC3CCNCC3)ccc12 [SAR-407899 FREE BASE] |
| > 30 µM (inactive) | 1.64 µM (active) | > 30 µM (inactive) | > 30 µM (inactive) | > 30 µM (inactive) | > 30 µM (inactive) | > 30 µM (inactive) | Cn1cc(-c2cnn3c(N)c(Br)c([C@@H]4CCCNC4)nc23)cn1 [SCH-900776] |

| SMILES | Kd [1] | Kd [2] | Kd [3] | Kd [4] | Kd [5] | Kd [6] | Kd [7] |
| --- | --- | --- | --- | --- | --- | --- | --- |
| O=C(Nc1nc2cccc(-c3ccc(CN4CCS(=O)(=O)CC4)cc3)n2n1)C1CC1 [FILGOTINIB] | > 30 µM (inactive) | > 30 µM (inactive) | > 30 µM (inactive) | > 30 µM (inactive) | > 30 µM (inactive) | > 30 µM (inactive) | > 30 µM (inactive) |
| CCCCCCCCCCCCCCCCCCOP(=O)([O-])OC1CC[N+](C)(C)CC1 [PERIFOSINE] | > 30 µM (inactive) | > 30 µM (inactive) | > 30 µM (inactive) | > 30 µM (inactive) | > 30 µM (inactive) | > 30 µM (inactive) | > 30 µM (inactive) |
| CNC(=O)c1cc(Oc2ccc(NC(=O)Nc3cc(C(C)(C)C)nn3-c3ccc4ncccc4c3)c(F)c2)ccn1 [REBASTINIB] | > 30 µM (inactive) | > 30 µM (inactive) | > 30 µM (inactive) | > 30 µM (inactive) | 0.055 µM (active) | > 30 µM (inactive) | > 30 µM (inactive) |
